Experimental data published in patent US6692557B1, “Antifouling of shellfish and aquaculture apparatus” (Unisearch Limited, priority 1997, dated 2004).

Assays:
[1] = tested on: fouling organisms (predominantly barnacles, small percentages of bryozoans and oysters); test: Port Stephens Stage I field trial: fouling cover on coated live oysters; assay type: in vivo; details: sub-tidal; for Mean fouling cover on coated oysters: 22 week trial, untreated control 50%
Source text: The field trial testing the antifouling coatings on oysters at the Port Stephens Fisheries Centre was finalised on week 22 of the trial. This coincided with the slight increase, at varying rates, of the fouling cover on the treated oysters, as shown by FIG. 8.
The trial was testing the antifouling efficacy of two different active ingredients (AI's). Sea-Nine 211™ and the furanone 281, incorporated into carrier coatings when applied to live oysters. The AI's are being tested at concentrations ranging from 10-15% by weight of the carrier coating, using both single and double coats. The trial was conducted in both the inter-tidal and the sub-tidal. In addition to monitoring fouling, oyster mortality was monitored to determine if the coatings and methods used were harmful to the oysters.
Fouling cover was first measured 6 weeks after the start of the trial and has been measured every 3 weeks thereafter. Coated oysters were photographed in the field using a digital camera and fouling cover was measured in the laboratory using the digital images. Fouling cover was measured by estimating the percentage cover of fouling organisms on the oysters. The fouling cover observed was comprised predominantly of barnacles and a small percentages of bryozoans and oysters.

[2] = tested on: Pacific oyster recruits; test: Port Stephens Stage I field trial: Pacific oyster bycatch on coated oysters; assay type: in vivo; details: sub-tidal, double coated treatments, at either 10 or 15%
Source text: After twelve weeks into the fouling trial there was a Pacific oyster settlement event. This enabled an observation of the efficacy of the different coatings as inhibitors of oyster bycatch. FIG. 9 presents the number of new Pacific oyster recruits that settled on the coated oysters.

[3] = tested on: fouling organisms; test: Stage II shellac trial: fouling on coated perspex tiles; assay type: in vivo; details: shellac carrier, 10% double layer, 15% single and double layers, controls 75% fouling cover after 4 weeks
Method: (§1) The shellac trial (stage II) was run for 30 weeks. This experiment was conducted to improve novel antifouling techniques for the aquaculture industry. Shellac was used as a carrier to coat Sea-Nine 211™ onto perspex tiles to determine whether Shellac with C9-211 was effective as an antifouling application and whether the rate at which Sea-Nine 211™ would leach out of the shellac formulation.

[4] = Stage II shellac trial: leaching / release of Sea-Nine 211 from shellac; assay type: physicochemical
Method: as §1
Measurements of leaching were carried out to determine the decrease in concentration of Sea-Nine 211™ in each treatment, as shown on FIG. 11. This indicates a regular rate of leaching over the 18 week trial period for each treatment of the same concentration. The rate of leaching is highest for the 15% Sea-Nine 211™ loadings (single and double), while decreasing with reduced compound loading.
The rate of compound release per day is important on determining the effectiveness of a given treatment over time (FIG. 12). Treatments 5% single layer, 10% single and double layer and 15% double layer had the highest initial drops with release rates from 1-2 μg/cm^2/day. The release rate varied for each treatment, over the following 16 weeks, but remained less than 2.0 μg/cm^2/day (FIG. 12).

Rate of leaching from shellac ([4]; 15% loadings (single and double), 18 week trial period): highest | Release rate from shellac ([4]; each treatment, over the following 16 weeks): less than 2.0 μg/cm^2/day | Release rate from shellac ([4]; initial, treatments 5% single layer, 10% single and double layer, 15% double layer): 1-2 μg/cm^2/day
Structure (SMILES): CCCCCCCCn1sc(Cl)c(Cl)c1=O [Sea-Nine 211™, 4,5-dichloro-2-n-octyl-4-isothiazolin-3-one]
Mean fouling cover on coated oysters ([1]; active ingredient 10%, single and double coatings): 20% | Mean fouling cover on coated oysters ([1]; active ingredient 15% in carrier coating, single and double coats): 15% | Inhibition of fouling cover ([1]; 15% single and double coats): 85% | Inhibition of Pacific oyster bycatch [2]: almost totally inhibiting bycatch | Time tiles remained unfouled [3]: 30 weeks
